Our source for the GI50 and TGI values is PubChem BioAssay (NCI).

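Test compounds were applied to cells in 96-well plates for 48 hours at 5 doses. At the GI50, growth is halved. TGI: total growth inhibition.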

Test systems include 786-0 renal; ACHN renal; HCT-15 colon; HOP-92 NSCLC; K-562 leukemia; LOX IMVI melanoma; MDA-MB-231 breast; NCI-H460 lung; U251 CNS; UACC-257 melanoma.
Assay in all cases: inhibition of tumour cell growth, NCI panel, 48 h

Regarding `Cc1c(C(=O)c2ccccc2)[n+](=O)c2cc(F)c(F)cc2n1[O-]`, the GI50 in the assay with 786-0 renal was 16.6 µM; in the assay on ACHN renal, 1.66 µM; in the assay with HCT-15 colon, 0.511 µM; in the assay on HOP-92 NSCLC, 3.72 µM; in the assay with K-562 leukemia, 1.97 µM; in the assay on LOX IMVI melanoma, 1.61 µM. Further, the GI50 was 1.46 µM in the assay on MDA-MB-231 breast, 2.27 µM with NCI-H460 lung, 1.71 µM with U251 CNS and 2.49 µM with UACC-257 melanoma. The TGI with 786-0 renal is 31.2 µM; with ACHN renal it was 3.02 µM; with HCT-15 colon, 1.64 µM; with HOP-92 NSCLC it was 14.7 µM; in the assay with K-562 leukemia, greater than 100 µM; with LOX IMVI melanoma, 3.01 µM. Moreover, the TGI stood at 2.83 µM in the assay with MDA-MB-231 breast, 5.17 µM in the assay on NCI-H460 lung, 3.08 µM with U251 CNS and 6.1 µM with UACC-257 melanoma.

Regarding `COc1cc(C)[nH]c(=O)c1CNC(=O)c1c(C)n([C@H](C)C2CCN(CC(F)(F)F)CC2)c2ccccc12`, the GI50 was 60.3 µM with 786-0 renal; 44 µM in the assay on HCT-15 colon; 78.5 µM in the assay on HOP-92 NSCLC; 48.5 µM in the assay with K-562 leukemia; 41.6 µM in the assay on LOX IMVI melanoma; 51 µM with MDA-MB-231 breast. Also, the results for the GI50 with NCI-H460 lung, in the assay on U251 CNS and in the assay with UACC-257 melanoma were 42.9 µM, 90.6 µM and 54.2 µM, respectively. In addition, the TGI in the assay with 786-0 renal, in the assay with HCT-15 colon, in the assay with HOP-92 NSCLC, in the assay with K-562 leukemia, in the assay on LOX IMVI melanoma and in the assay on MDA-MB-231 breast was greater than 100 µM each time. The TGI in the assay on NCI-H460 lung, in the assay on U251 CNS and with UACC-257 melanoma was greater than 100 µM in each case.

On to `COC(=O)c1cccc(NC(=O)c2ccc(NC3=C(Cl)C(=O)N(Cc4ccccc4)C3=O)cc2)c1`, for which the GI50 is 10.5 µM in the assay on 786-0 renal; 2.29 µM with HCT-15 colon; 11 µM in the assay with HOP-92 NSCLC; 21.3 µM in the assay with K-562 leukemia; 1.76 µM with LOX IMVI melanoma; 10.7 µM in the assay with MDA-MB-231 breast. Further, the GI50 in the assay on NCI-H460 lung was 30.2 µM; in the assay with U251 CNS, 12.7 µM; in the assay with UACC-257 melanoma, 15.4 µM. The TGI was found to be 25.2 µM with 786-0 renal; 17.5 µM in the assay on HCT-15 colon; 23.4 µM in the assay on HOP-92 NSCLC; 52.7 µM in the assay with K-562 leukemia; 16.2 µM in the assay with LOX IMVI melanoma; 32.1 µM in the assay with MDA-MB-231 breast. The TGI in the assay with NCI-H460 lung was determined as 84.6 µM; in the assay on U251 CNS, 28.3 µM; in the assay on UACC-257 melanoma it was 50.2 µM.

As to `COc1cc(C2CC(c3cccc(Nc4ccnc5cc(Cl)ccc45)c3)=NN2c2ccccc2)cc(OC)c1OC` (stereo not drawn), the GI50 in the assay with 786-0 renal was 5.88 µM; in the assay with ACHN renal, 3.52 µM; with HCT-15 colon, 2.91 µM; with HOP-92 NSCLC, 3.6 µM; in the assay with K-562 leukemia, 3.75 µM; in the assay on LOX IMVI melanoma it was 2.3 µM. Further, the GI50 with MDA-MB-231 breast is 4.77 µM; in the assay on NCI-H460 lung, 3.27 µM; in the assay on UACC-257 melanoma, 10.5 µM. The TGI in the assay on 786-0 renal, in the assay on ACHN renal, in the assay with HCT-15 colon, in the assay with HOP-92 NSCLC, in the assay with K-562 leukemia and in the assay on LOX IMVI melanoma was greater than 100 µM in each case. The TGI in the assay on MDA-MB-231 breast, with NCI-H460 lung and in the assay on UACC-257 melanoma was greater than 100 µM each time.

Take `CCc1ncc(CO)n1Cc1cccc2ccccc12`: the TGI with 786-0 renal, in the assay with ACHN renal, in the assay on HCT-15 colon, in the assay with HOP-92 NSCLC, in the assay with K-562 leukemia and in the assay with MDA-MB-231 breast was greater than 100 µM throughout. The TGI in the assay on NCI-H460 lung, with U251 CNS and in the assay with UACC-257 melanoma was greater than 100 µM throughout.

As to `CN(C)c1ccc(/C=c2/c3cc(O)ccc3n3c2cc(-c2ccccc2)[n+]3C)cc1`, the GI50 is 1.31 µM in the assay with 786-0 renal, 4.78 µM in the assay with ACHN renal and 1.01 µM with K-562 leukemia. Moreover, the TGI in the assay on ACHN renal is greater than 100 µM; in the assay on HCT-15 colon it was greater than 100 µM; in the assay on HOP-92 NSCLC it was 3.9 µM; with LOX IMVI melanoma, 2.47 µM; in the assay on MDA-MB-231 breast, 2.82 µM; in the assay on U251 CNS, 1.52 µM. In the assay on UACC-257 melanoma, this compound had a TGI of 3.07 µM.

For `C[C@]12CC[C@H]3[C@@H](CC[C@]4(O)C[C@@H](O[C@@H]5O[C@H](CO)[C@@H](O[C@@H]6OC[C@@H](O)[C@H](O)[C@H]6O)[C@H](O)[C@H]5O)CC[C@]34C=O)[C@@]1(O)CC[C@@H]2C1=CC(=O)OC1`, the GI50 with 786-0 renal was 1.42 µM; in the assay with ACHN renal, 0.306 µM; in the assay with HCT-15 colon, 1.6 µM; in the assay with K-562 leukemia, 1.57 µM; with LOX IMVI melanoma, 1.46 µM; with MDA-MB-231 breast, 3.38 µM. Moreover, the GI50 was 0.379 µM with NCI-H460 lung, 1.68 µM in the assay with U251 CNS and 2.34 µM with UACC-257 melanoma. Further, the TGI in the assay on 786-0 renal came to 5.19 µM; with ACHN renal, 1.88 µM; with HCT-15 colon, 5.12 µM; in the assay with K-562 leukemia it was 10.2 µM; in the assay with LOX IMVI melanoma it was 5.09 µM; in the assay on MDA-MB-231 breast, 22 µM. The TGI in the assay with NCI-H460 lung worked out at 1.31 µM; in the assay on U251 CNS, 5.67 µM; with UACC-257 melanoma, 9.02 µM.

As for `Nc1cc(N)c2nc(NCCc3ccc(Cl)c(Cl)c3)cnc2c1`, the GI50 was 16.5 µM with 786-0 renal; 14.8 µM with ACHN renal; 13.5 µM in the assay with HCT-15 colon; 6.15 µM with HOP-92 NSCLC; 3.36 µM in the assay with K-562 leukemia; 12 µM in the assay on LOX IMVI melanoma. Moreover, the GI50 in the assay on MDA-MB-231 breast is 4.72 µM; in the assay on NCI-H460 lung, 15.4 µM; in the assay with U251 CNS it was 11.7 µM. For the same compound, the TGI in the assay on 786-0 renal stood at 32.9 µM; in the assay with ACHN renal, 28 µM; with HCT-15 colon it was 27.3 µM; in the assay with HOP-92 NSCLC, 19.5 µM; in the assay on K-562 leukemia, 14.1 µM; with LOX IMVI melanoma, 31.1 µM. Moreover, the TGI in the assay on MDA-MB-231 breast came to 16.5 µM; in the assay on NCI-H460 lung, 35 µM; in the assay on U251 CNS it was 23.9 µM.

In the case of `COC1C(=O)CCC2(CO2)C1(O)C1(C)OC1CC=C(C)C` (stereo not drawn), the TGI was greater than 100 µM in the assay with 786-0 renal; greater than 100 µM with ACHN renal; greater than 100 µM with HCT-15 colon; greater than 100 µM in the assay on HOP-92 NSCLC; 76.3 µM in the assay with K-562 leukemia; greater than 100 µM in the assay on MDA-MB-231 breast. The TGI with NCI-H460 lung, in the assay on U251 CNS and in the assay with UACC-257 melanoma was greater than 100 µM each time.
